Experimental data reported in PubChem BioAssay AID330 (DTP/NCI, 2004).
Values joined by “and” are separate entries in the source; they are usually repeats but may differ in a detail not shown here. Identical values can stand only once. Toxic doses and inconclusive results are not listed.

Tested on: P388 leukemia ip, CD2F1 mice, survival T/C
Test: NCI In Vivo Anticancer Drug Screen. Data for tumor model P388 Leukemia (intraperitoneal) in CD2F1 (CDF1) mice
Conditions: endpoint: median survival time, higher = longer survival
Summary of the method: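 Mice carrying the transplanted tumor received test compound or vehicle. Survival was recorded in each group, and the value is the treated-group measurement divided by that of the vehicle-treated control group.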

[1] = dose: 50.0 mg/kg/injection, schedule: Q01DX009 (ip), vehicle: saline with Tween-80
[2] = dose: 100.0 mg/kg/injection, schedule: Q04DX003 (ip), vehicle: saline with Tween-80
[3] = dose: 60.0 mg/kg/injection, schedule: Q01DX005 (ip), vehicle: saline with Tween-80
[4] = dose: 120.0 mg/kg/injection, schedule: Q01DX005 (ip), vehicle: saline with Tween-80
[5] = dose: 240.0 mg/kg/injection, schedule: Q01DX005 (ip), vehicle: saline with Tween-80
[6] = dose: 12.5 mg/kg/injection, schedule: Q01DX005 (ip), vehicle: Klucel (hydroxypropylcellulose) (HPC)
[7] = dose: 25.0 mg/kg/injection, schedule: Q01DX005 (ip), vehicle: Klucel (hydroxypropylcellulose) (HPC)
[8] = dose: 50.0 mg/kg/injection, schedule: Q01DX005 (ip), vehicle: Klucel (hydroxypropylcellulose) (HPC)
[9] = dose: 12.5 mg/kg/injection, schedule: Q01DX009 (ip), vehicle: saline
[10] = dose: 25.0 mg/kg/injection, schedule: Q01DX009 (ip), vehicle: saline
[11] = dose: 6.25 mg/kg/injection, schedule: Q01DX009 (ip), vehicle: saline
[12] = dose: 50.0 mg/kg/injection, schedule: Q01DX009 (ip), vehicle: saline
[13] = dose: 100.0 mg/kg/injection, schedule: Q01DX009 (ip), vehicle: saline with Tween-80
[14] = dose: 200.0 mg/kg/injection, schedule: Q01DX009 (ip), vehicle: saline with Tween-80
[15] = dose: 100.0 mg/kg/injection, schedule: Q01DX009 (ip), vehicle: saline
[16] = dose: 200.0 mg/kg/injection, schedule: Q01DX009 (ip), vehicle: saline
[17] = dose: 100.0 mg/kg/injection, schedule: Q01DX005 (ip), vehicle: Klucel (hydroxypropylcellulose) (HPC)
[18] = dose: 200.0 mg/kg/injection, schedule: Q01DX005 (ip), vehicle: saline with Tween-80

Structure (SMILES): CCOP(=S)(N1CC1C)N1CC1C (centres undefined)
- T/C [1]: 120 % of control
- T/C (dose: 66.0 mg/kg/injection, schedule: Q04DX003 (ip), vehicle: saline with Tween-80): 100 % of control
- T/C [2]: 109 % of control

Structure (SMILES): CCN(CCOC(=O)Nc1ccc(F)cc1)c1ccccc1
- T/C [3]: 111 % of control
- T/C [4]: 96 % of control
- T/C [5]: 94 % of control

Structure (SMILES): CC1=C(C)C2C(=O)NC(=O)NC12 (centres undefined)
- T/C (dose: 100.0 mg/kg/injection, schedule: Q01DX001 (ip), vehicle: Klucel (hydroxypropylcellulose) (HPC)): 100 % of control
- T/C (dose: 200.0 mg/kg/injection, schedule: Q01DX001 (ip), vehicle: Klucel (hydroxypropylcellulose) (HPC)): 91 % of control

Structure (SMILES): CCN(CC)CCN(C(=O)C1c2ccccc2Oc2ccccc21)C1CCCCC1
- T/C [6]: 101 % of control
- T/C [7]: 100 % of control
- T/C [8]: 98 % of control and 92 % of control

Structure (SMILES): CN1CC2CN(C)CC(C1)C2(O)c1ccccc1 (centres undefined)
- T/C [9]: 97 % of control
- T/C [10]: 98 % of control

Structure (SMILES): CC(=O)Nc1c(Cl)cc2c(c1Cl)Cc1cc(N(CCO)CCO)ccc1-2
- T/C [11]: 97 % of control
- T/C [9]: 93 % of control
- T/C [10]: 93 % of control
- T/C [12]: 94 % of control

Structure (SMILES): COC1(OC)C2C=CC1CC2
- T/C [1]: 107 % of control and 116 % of control
- T/C [13]: 101 % of control
- T/C [14]: 109 % of control

Structure (SMILES): CN(C)CCCNC(=O)/C=C\C(=O)O
- T/C [9]: 107 % of control
- T/C [10]: 100 % of control
- T/C [12]: 109 % of control and 93 % of control
- T/C [15]: 94 % of control
- T/C [16]: 94 % of control
- T/C (dose: 400.0 mg/kg/injection, schedule: Q01DX009 (ip), vehicle: saline): 97 % of control

Structure (SMILES): CC1(C)OC2C3COC(O3)C(O)C2O1 (centres undefined)
- T/C (dose: 100.0 mg/kg/injection, schedule: Q01DX001 (ip), vehicle: saline): 107 % of control
- T/C (dose: 200.0 mg/kg/injection, schedule: Q01DX001 (ip), vehicle: saline): 98 % of control
- T/C (dose: 400.0 mg/kg/injection, schedule: Q01DX001 (ip), vehicle: saline): 112 % of control

Structure (SMILES): CCOC(=O)NNCC(=O)O
- T/C (dose: 12.5 mg/kg/injection, schedule: Q01DX009 (ip), vehicle: water): 104 % of control
- T/C (dose: 25.0 mg/kg/injection, schedule: Q01DX009 (ip), vehicle: water): 105 % of control
- T/C (dose: 50.0 mg/kg/injection, schedule: Q01DX009 (ip), vehicle: water): 101 % of control
- T/C (dose: 100.0 mg/kg/injection, schedule: Q01DX009 (ip), vehicle: water): 94 % of control
- T/C (dose: 200.0 mg/kg/injection, schedule: Q01DX009 (ip), vehicle: water): 98 % of control

Structure (SMILES): CN(C)CCOC(c1ccccc1)c1ccccc1
- T/C (dose: 25.0 mg/kg/injection, schedule: Q04DX003 (ip), vehicle: saline): 100 % of control
- T/C (dose: 50.0 mg/kg/injection, schedule: Q04DX003 (ip), vehicle: saline): 100 % of control
- T/C (dose: 100.0 mg/kg/injection, schedule: Q04DX003 (ip), vehicle: saline): 108 % of control

Structure (SMILES): NC(=O)C1(N(CCO)CCO)CCCC1
- T/C (dose: 50.0 mg/kg/injection, schedule: Q01DX005 (ip), vehicle: saline): 104 % of control
- T/C (dose: 100.0 mg/kg/injection, schedule: Q01DX005 (ip), vehicle: saline): 98 % of control
- T/C (dose: 200.0 mg/kg/injection, schedule: Q01DX005 (ip), vehicle: saline): 105 % of control

Structure (SMILES): Cc1ccnc(N=C2N=C(Nc3cc(C)ccn3)c3ccccc32)c1
- T/C (dose: 6.25 mg/kg/injection, schedule: Q01DX009 (ip), vehicle: saline with Tween-80): 93 % of control
- T/C (dose: 12.5 mg/kg/injection, schedule: Q01DX009 (ip), vehicle: saline with Tween-80): 88 % of control
- T/C (dose: 25.0 mg/kg/injection, schedule: Q01DX009 (ip), vehicle: saline with Tween-80): 99 % of control
- T/C [13]: 91 % of control
- T/C [14]: 90 % of control

Structure (SMILES): Cc1cc(O)c(C=Nc2ccc3ccccc3c2)c2c1C(=O)Oc1c(CO)c(O)c(C(=O)O)c(C=Nc3ccc4ccccc4c3)c1O2
- T/C [6]: 86 % of control and 90 % of control
- T/C [7]: 104 % of control
- T/C [17]: 88 % of control and 92 % of control

Structure (SMILES): CC1CC(C)(C)OB(OCCc2ccc(Cl)cc2Cl)O1 (centres undefined)
- T/C [12]: 99 % of control
- T/C [15]: 102 % of control
- T/C [16]: 100 % of control

Structure (SMILES): Cc1c2c(cc3c4ccccc4n(C)c13)C(=O)c1ccccc1C2=O
- T/C (dose: 100.0 mg/kg/injection, schedule: Q04DX002 (ip), vehicle: saline with Tween-80): 90 % of control
- T/C (dose: 200.0 mg/kg/injection, schedule: Q04DX002 (ip), vehicle: saline with Tween-80): 87 % of control
- T/C (dose: 400.0 mg/kg/injection, schedule: Q04DX002 (ip), vehicle: saline with Tween-80): 92 % of control

Structure (SMILES): O=C1c2ccccc2CN(c2ccccc2)C(=Nc2ccccc2)N1c1ccccc1
- T/C (dose: 50.0 mg/kg/injection, schedule: Q01DX005 (ip), vehicle: saline with Tween-80): 95 % of control
- T/C (dose: 100.0 mg/kg/injection, schedule: Q01DX005 (ip), vehicle: saline with Tween-80): 93 % of control
- T/C [18]: 95 % of control

Structure (SMILES): COc1cccc2c1C(=O)c1c(O)c3c(c(O)c1C2=O)C[C@@](O)(C(O)CO)C[C@@H]3OC1CC(NC(=O)C(F)(F)F)C(O)C(C)O1 (some centres undefined)
- T/C (dose: 25.0 mg/kg/injection, schedule: Q01DX009 (ip), vehicle: other): 151 % of control and 152 % of control

Structure (SMILES): CC(C)Oc1ccc2c(c1)Sc1ccc(Cl)cc1N2
- T/C [2]: 100 % of control
- T/C (dose: 200.0 mg/kg/injection, schedule: Q04DX003 (ip), vehicle: saline with Tween-80): 100 % of control
- T/C (dose: 400.0 mg/kg/injection, schedule: Q04DX003 (ip), vehicle: saline with Tween-80): 100 % of control

Structure (SMILES): CCCCCC(=O)C(C)(c1nc2n(c1O)/C(=N/C(=O)Nc1ccc(Cl)cc1)N=N2)c1nc2n(c1O)/C(=N/C(=O)Nc1ccc(Cl)cc1)N=N2
- T/C [3]: 89 % of control
- T/C [4]: 88 % of control
- T/C [5]: 86 % of control

Structure (SMILES): O=C1/C(=C/c2cccc3ccccc23)SC(=S)N1Cc1ccco1
- T/C [1]: 92 % of control
- T/C [13]: 92 % of control
- T/C [14]: 99 % of control

Structure (SMILES): Clc1ccc(-c2csc3cccc[n+]23)cc1
- T/C (dose: 12.5 mg/kg/injection, schedule: Q01DX009 (ip), vehicle: Klucel (hydroxypropylcellulose) (HPC)): 103 % of control
- T/C (dose: 25.0 mg/kg/injection, schedule: Q01DX009 (ip), vehicle: Klucel (hydroxypropylcellulose) (HPC)): 100 % of control
- T/C (dose: 50.0 mg/kg/injection, schedule: Q01DX009 (ip), vehicle: Klucel (hydroxypropylcellulose) (HPC)): 103 % of control

Structure (SMILES): C/C(=N\Nc1ccccc1)C1CC2C=C(C#N)C1N(Cc1ccccc1)C2 (centres undefined)
- T/C (dose: 8.75 mg/kg/injection, schedule: Q01DX005 (ip), vehicle: Klucel (hydroxypropylcellulose) (HPC)): 94 % of control
- T/C (dose: 17.5 mg/kg/injection, schedule: Q01DX005 (ip), vehicle: Klucel (hydroxypropylcellulose) (HPC)): 96 % of control
- T/C (dose: 35.0 mg/kg/injection, schedule: Q01DX005 (ip), vehicle: Klucel (hydroxypropylcellulose) (HPC)): 94 % of control

Structure (SMILES): OCC1OC(/C(N=Nc2ccccc2)=N\Nc2ccccc2)C(O)C1O (centres undefined)
- T/C (dose: 6.25 mg/kg/injection, schedule: Q01DX005 (ip), vehicle: saline with Tween-80): 99 % of control
- T/C (dose: 12.5 mg/kg/injection, schedule: Q01DX005 (ip), vehicle: saline with Tween-80): 89 % of control
- T/C [18]: 97 % of control

Structure (SMILES): C[N+]1(C)CCOC(O)(c2ccccc2)C1 (centres undefined)
- T/C [11]: 104 % of control
- T/C [9]: 98 % of control
- T/C [10]: 100 % of control

Structure (SMILES): O=C(NC(Cc1ccc(I)cc1)C(=O)O)c1ccc(Cl)cc1 (centres undefined)
- T/C [8]: 95 % of control
- T/C [17]: 100 % of control
- T/C (dose: 200.0 mg/kg/injection, schedule: Q01DX005 (ip), vehicle: Klucel (hydroxypropylcellulose) (HPC)): 108 % of control

Structure (SMILES): C1CSCCSCCSCCS1
- T/C (dose: 100.0 mg/kg/injection, schedule: Q04DX003 (ip), vehicle: Klucel (hydroxypropylcellulose) (HPC)): 100 % of control
- T/C (dose: 200.0 mg/kg/injection, schedule: Q04DX003 (ip), vehicle: Klucel (hydroxypropylcellulose) (HPC)): 100 % of control
- T/C (dose: 400.0 mg/kg/injection, schedule: Q04DX003 (ip), vehicle: Klucel (hydroxypropylcellulose) (HPC)): 101 % of control

Structure (SMILES): CS/N=C(\c1ccccc1)N1CCOCC1
- T/C (dose: 60.0 mg/kg/injection, schedule: Q01DX005 (ip), vehicle: Klucel (hydroxypropylcellulose) (HPC)): 100 % of control
- T/C (dose: 120.0 mg/kg/injection, schedule: Q01DX005 (ip), vehicle: Klucel (hydroxypropylcellulose) (HPC)): 98 % of control

Structure (SMILES): C(=Nc1cccnc1)c1ccc(C=Nc2cccnc2)cc1
- T/C [12]: 108 % of control
- T/C [15]: 104 % of control
